In ChEMBL document CHEMBL1201862, “PubChem BioAssay data set” (2004):
Where “and” joins values, the source holds several entries; their conditions need not be identical. Identical values can stand only once. Calls of active or inactive are those of the source.

Legend:
[1] = target: T1, Beta-2 adrenergic receptor (Homo sapiens, UniProt P07550); test: Dose response for HTS for Beta-2AR agonists via FAP method from Powderset1.; format: functional
[2] = target: T1, Beta-2 adrenergic receptor; test: beta2AR agonists driving receptor internalization, dose response, cell-based, FAP fluorogen, flow cytometry, cherry pick 1 (AID 588763); format: functional
Protein RecA = target: T2, Protein RecA (Mycobacterium tuberculosis, UniProt P9WHJ3); test: Fluorescence Cell-Free Homogeneous Dose Retest to Identify Inhibitors of RecA-Intein Splicing Activity. [Related pubchem assays (depositor defined):AID2097, AID2223, AID489010, AID492950]; format: functional
T2 sequence (P9WHJ3 whole entry): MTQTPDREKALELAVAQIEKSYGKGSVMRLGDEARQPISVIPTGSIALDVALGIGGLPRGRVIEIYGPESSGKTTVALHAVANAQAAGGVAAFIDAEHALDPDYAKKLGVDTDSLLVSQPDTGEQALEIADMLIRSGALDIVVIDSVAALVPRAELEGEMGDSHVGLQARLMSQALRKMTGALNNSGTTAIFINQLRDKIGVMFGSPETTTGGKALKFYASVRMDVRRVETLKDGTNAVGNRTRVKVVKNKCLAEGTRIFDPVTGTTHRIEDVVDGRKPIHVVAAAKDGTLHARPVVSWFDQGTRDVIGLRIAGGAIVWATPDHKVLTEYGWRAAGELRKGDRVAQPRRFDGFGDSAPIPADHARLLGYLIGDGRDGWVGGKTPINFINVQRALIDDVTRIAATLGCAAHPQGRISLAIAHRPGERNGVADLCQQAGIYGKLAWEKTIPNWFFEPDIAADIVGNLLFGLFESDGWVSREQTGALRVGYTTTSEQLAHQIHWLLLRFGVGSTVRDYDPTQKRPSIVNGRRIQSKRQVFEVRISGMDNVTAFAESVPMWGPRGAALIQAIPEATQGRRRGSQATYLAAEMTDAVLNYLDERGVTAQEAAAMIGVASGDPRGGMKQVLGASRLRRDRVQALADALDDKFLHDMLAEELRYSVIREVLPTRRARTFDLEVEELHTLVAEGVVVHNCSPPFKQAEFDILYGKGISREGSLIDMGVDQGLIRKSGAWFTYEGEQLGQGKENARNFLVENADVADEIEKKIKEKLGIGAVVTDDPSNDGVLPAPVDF

[3] = target: T3, Replicative DNA helicase DnaB (Mycobacterium tuberculosis, UniProt P9WMR3); test: DnaB intein splicing inhibitors, dose response, biochemical, cell-free fluorescence (AID 449749); format: functional
T3 sequence (P9WMR3 whole entry): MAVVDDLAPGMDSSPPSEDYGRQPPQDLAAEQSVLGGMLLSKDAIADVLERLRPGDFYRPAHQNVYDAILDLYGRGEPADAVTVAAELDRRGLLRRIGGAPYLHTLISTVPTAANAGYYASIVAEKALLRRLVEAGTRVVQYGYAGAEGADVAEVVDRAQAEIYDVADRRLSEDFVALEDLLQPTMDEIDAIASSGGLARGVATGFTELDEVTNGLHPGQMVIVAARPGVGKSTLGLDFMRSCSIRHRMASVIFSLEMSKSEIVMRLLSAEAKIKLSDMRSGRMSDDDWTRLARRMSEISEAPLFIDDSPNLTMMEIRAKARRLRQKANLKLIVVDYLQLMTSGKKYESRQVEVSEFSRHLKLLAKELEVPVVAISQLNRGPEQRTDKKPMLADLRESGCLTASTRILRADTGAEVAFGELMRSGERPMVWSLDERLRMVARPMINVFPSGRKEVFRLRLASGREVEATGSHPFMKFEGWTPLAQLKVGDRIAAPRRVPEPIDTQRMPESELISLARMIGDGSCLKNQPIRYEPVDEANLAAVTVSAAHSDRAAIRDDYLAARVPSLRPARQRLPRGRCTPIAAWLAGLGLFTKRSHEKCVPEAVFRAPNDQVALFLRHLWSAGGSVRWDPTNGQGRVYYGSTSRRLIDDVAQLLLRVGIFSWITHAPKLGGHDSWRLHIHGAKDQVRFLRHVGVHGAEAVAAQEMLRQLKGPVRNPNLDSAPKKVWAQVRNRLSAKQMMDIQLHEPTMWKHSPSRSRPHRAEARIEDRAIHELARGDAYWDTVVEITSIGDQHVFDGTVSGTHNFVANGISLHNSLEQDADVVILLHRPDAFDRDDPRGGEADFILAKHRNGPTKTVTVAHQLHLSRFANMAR

Vero = Vero cell cytotoxicity, cytotoxicity control for flavivirus capping enzyme inhibitors (AID 588742); format: functional; conditions: Chlorocebus sabaeus
[4] = target: Hepatocyte nuclear factor 4-alpha (Homo sapiens, UniProt P41235); format: functional, cell-based;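 further: biochemical luminescence-based dose-response counterscreen measuring inhibition of HNF4 dimerization, run alongside a screen for blockers of ABHD5–perilipin-5 interaction; split luciferase complementation of HNF4 fusion proteins in cell lysate measuring dimerization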
Genome polyprotein = Genome polyprotein (dengue virus type 2, UniProt P29990); test: Dengue-2 NS5 methyltransferase inhibitors, primary screen, biochemical, confirmation dose response (AID 588689); format: functional
Beta-lactamase [5] = target: T4, Beta-lactamase (Pseudomonas aeruginosa, UniProt Q79MP6); test: IMP-1 metallo-beta-lactamase inhibitors, dose response, selectivity assay for VIM-2 inhibitor project, biochemical, epi-absorbance (AID 1920)
Beta-lactamase [6] = target: T4, Beta-lactamase; test: […] counterscreen for selective VIM-2 inhibitors: dose response biochemical high throughput screening assay to identify inhibitors of IMP-1 metallo-beta-lactamase.
Beta-lactamase [7] = target: Beta-lactamase (Salmonella choleraesuis (strain SC-B67), UniProt Q5J463); test: Epi-absorbance-based counterscreen for selective VIM-2 inhibitors: dose response biochemical high throughput screening assay to identify inhibitors of TEM-1 serine-beta-lactamase.
[8] = MDA-MB-231 cell growth inhibition, dose response, cytotoxicity control for RAD54 inhibitor project, CellTiter-Glo luminescence, cherry-pick (AID 651692); format: functional, cell-based
[9] = target: T5, DNA repair and recombination protein RAD54-like (Homo sapiens, UniProt Q92698); test: inhibitors of human RAD54 branch migration, confirmation, biochemical, fluorescence, cherry-picked samples, dose series (AID 651657); format: functional
T5 sequence (Q92698 whole entry): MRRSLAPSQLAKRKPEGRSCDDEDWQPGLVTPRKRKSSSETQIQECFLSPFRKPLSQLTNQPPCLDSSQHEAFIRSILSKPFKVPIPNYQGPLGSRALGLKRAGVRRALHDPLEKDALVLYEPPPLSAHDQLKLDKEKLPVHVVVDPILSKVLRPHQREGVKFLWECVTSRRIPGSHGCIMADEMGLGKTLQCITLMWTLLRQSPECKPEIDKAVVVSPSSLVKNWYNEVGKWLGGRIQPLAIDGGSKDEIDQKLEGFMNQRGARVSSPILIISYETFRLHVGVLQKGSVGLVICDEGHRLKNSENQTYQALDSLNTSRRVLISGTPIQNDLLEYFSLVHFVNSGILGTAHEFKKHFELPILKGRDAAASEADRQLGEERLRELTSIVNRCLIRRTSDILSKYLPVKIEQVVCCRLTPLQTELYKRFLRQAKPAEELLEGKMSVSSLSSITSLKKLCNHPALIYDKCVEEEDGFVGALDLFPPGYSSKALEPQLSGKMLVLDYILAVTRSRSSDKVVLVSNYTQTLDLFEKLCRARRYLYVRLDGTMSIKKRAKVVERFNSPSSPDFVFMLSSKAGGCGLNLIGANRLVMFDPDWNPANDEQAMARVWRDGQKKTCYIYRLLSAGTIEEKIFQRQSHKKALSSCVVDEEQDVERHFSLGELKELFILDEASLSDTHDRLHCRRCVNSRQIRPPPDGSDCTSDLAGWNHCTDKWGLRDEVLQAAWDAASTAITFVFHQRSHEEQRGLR

T1 sequence (P07550 whole entry): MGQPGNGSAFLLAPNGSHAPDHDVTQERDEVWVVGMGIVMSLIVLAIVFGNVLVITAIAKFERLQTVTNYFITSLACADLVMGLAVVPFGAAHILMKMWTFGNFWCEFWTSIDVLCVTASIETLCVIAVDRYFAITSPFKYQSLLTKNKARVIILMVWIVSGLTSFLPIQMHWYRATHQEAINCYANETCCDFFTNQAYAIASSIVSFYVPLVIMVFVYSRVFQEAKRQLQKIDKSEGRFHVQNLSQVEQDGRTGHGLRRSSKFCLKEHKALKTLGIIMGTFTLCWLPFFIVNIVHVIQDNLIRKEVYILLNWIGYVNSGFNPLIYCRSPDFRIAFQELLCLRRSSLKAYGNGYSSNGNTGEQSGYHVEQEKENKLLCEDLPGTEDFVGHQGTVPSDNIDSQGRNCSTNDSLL
T4 sequence (Q79MP6 whole entry): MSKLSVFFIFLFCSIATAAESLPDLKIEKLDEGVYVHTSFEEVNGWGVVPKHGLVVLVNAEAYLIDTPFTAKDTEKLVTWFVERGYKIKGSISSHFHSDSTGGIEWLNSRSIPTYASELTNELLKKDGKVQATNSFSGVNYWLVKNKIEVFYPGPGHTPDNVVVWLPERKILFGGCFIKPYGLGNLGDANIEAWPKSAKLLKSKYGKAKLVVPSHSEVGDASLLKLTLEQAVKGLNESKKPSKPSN
Chain of Hepatocyte nuclear factor 4-alpha (P41235 whole entry, the tested form may be a part): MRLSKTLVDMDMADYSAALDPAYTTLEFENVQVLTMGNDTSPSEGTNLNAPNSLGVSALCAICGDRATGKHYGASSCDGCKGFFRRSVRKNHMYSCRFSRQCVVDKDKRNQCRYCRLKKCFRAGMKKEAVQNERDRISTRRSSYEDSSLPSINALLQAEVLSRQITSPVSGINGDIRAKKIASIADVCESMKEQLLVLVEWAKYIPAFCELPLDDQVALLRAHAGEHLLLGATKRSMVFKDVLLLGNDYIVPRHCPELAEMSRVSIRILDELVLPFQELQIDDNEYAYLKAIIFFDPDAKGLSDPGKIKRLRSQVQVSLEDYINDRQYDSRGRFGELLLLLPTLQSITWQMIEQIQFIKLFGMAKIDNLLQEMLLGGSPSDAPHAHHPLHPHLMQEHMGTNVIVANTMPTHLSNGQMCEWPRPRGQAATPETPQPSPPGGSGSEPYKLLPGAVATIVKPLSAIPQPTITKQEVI
Chain of Genome polyprotein (P29990 2492-3391 limits assumed): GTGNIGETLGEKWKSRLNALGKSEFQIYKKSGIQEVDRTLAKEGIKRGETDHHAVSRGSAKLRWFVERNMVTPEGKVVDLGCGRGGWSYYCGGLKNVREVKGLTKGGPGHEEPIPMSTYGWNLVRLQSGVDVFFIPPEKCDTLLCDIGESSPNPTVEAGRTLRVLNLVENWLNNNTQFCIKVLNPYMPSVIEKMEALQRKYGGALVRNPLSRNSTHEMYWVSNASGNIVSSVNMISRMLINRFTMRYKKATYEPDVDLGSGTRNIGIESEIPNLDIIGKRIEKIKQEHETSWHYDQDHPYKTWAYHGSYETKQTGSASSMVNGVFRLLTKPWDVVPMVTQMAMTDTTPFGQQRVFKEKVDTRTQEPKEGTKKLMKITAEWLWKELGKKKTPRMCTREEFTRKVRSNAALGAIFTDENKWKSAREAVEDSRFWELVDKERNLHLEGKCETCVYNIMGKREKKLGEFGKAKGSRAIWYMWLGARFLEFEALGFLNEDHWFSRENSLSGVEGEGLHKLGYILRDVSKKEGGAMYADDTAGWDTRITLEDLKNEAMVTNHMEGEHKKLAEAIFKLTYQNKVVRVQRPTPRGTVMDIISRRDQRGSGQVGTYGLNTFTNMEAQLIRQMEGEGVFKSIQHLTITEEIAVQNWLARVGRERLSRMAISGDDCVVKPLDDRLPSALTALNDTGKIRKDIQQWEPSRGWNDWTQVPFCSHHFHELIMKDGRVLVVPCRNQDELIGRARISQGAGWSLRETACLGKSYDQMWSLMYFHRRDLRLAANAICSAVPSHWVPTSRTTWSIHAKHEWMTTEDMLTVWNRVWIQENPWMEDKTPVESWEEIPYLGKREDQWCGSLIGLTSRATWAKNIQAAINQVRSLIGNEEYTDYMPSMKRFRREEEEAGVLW
Chain of Beta-lactamase (Salmonella choleraesuis (strain SC-B67), UniProt Q5J463) (Q5J463 whole entry): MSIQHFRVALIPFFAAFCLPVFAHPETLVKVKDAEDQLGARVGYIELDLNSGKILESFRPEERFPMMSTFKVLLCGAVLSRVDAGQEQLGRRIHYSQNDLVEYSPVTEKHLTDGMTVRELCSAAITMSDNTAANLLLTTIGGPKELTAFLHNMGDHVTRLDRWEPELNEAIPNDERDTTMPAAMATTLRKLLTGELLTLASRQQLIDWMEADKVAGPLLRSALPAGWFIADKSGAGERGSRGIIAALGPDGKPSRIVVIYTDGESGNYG

**Q.** Which results are given for `CN(CC(=O)N1CCN(c2ccccn2)CC1)S(=O)(=O)c1ccc(Br)cc1`?
**A.** EC50 [1]: 0.0191 µM (active); EC50 [2]: 82.8 nM (active) and 35.6 nM (active)

**Q.** What does the source list for `CC(=O)Oc1c(Br)cc(N(C(C)=O)S(=O)(=O)c2ccccc2)c2ccccc12`?
**A.** EC50 (Protein RecA): 2.81 µM (active); AC50 [3]: 3.76 µM (active); CC50 (Vero): 39.8 µM (active); IC50 [4]: 6.11 µM (active); IC50 (Genome polyprotein): 49.8 µM (active)

**Q.** For `O=C(CSc1nnc(NC(=O)c2ccccc2)s1)NCc1ccco1`, which IC50 (Beta-lactamase [5]) is on record?
**A.** > 59.6 µM (inactive)

**Q.** And the IC50 (Beta-lactamase [6])?
**A.** > 59.6 µM (inactive)

**Q.** And the IC50 (Beta-lactamase [7])?
**A.** > 59.6 µM (inactive)

**Q.** What does the source list for `CCOC(=O)N1CCN(S(=O)(=O)c2ccc(C(=O)Nc3sc4c(c3C(=O)OC)CCN(C)C4)cc2)CC1`?
**A.** AC50 [8]: 17.1 µM (active); AC50 [9]: 16.8 µM (active)
